From ChEMBL document CHEMBL1154233, “Minor furanocoumarins and coumarins in grapefruit peel oil as inhibitors of human cytochrome P450 3A4” (J Nat Prod, 2009)

Target: Cytochrome P450 3A4 (Homo sapiens, UniProt P08684)
Experiment: Inhibition of CYP3A4 after 30 mins by fluorescence microplate reader assay; call rule not given here
Format: ADME

Chain of Cytochrome P450 3A4 (P08684 whole entry): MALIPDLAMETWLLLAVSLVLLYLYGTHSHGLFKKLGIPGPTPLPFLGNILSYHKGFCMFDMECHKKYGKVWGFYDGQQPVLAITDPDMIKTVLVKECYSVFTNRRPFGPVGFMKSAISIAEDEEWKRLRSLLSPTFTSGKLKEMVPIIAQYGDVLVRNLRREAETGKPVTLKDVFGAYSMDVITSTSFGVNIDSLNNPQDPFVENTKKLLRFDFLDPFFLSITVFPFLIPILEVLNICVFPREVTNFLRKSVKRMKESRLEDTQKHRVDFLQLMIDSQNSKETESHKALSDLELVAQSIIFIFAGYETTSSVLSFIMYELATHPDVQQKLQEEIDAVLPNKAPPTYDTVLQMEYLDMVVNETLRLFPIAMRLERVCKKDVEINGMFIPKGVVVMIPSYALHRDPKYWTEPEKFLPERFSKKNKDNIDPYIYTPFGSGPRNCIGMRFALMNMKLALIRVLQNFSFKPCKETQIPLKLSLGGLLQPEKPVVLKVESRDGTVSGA

| SMILES | IC50 (read-out: IC50) [nM] | IC50 |
| --- | --- | --- |
| CCCCCCCCCC1O[C@H](CC/C(C)=C/COc2c3ccoc3cc3oc(=O)ccc23)C(C)(C)O1 (some centres not stated) | 270 |  |
| CCCCCCCCCC1O[C@H](CC/C(C)=C/COc2ccc3ccc(=O)oc3c2)C(C)(C)O1 (some centres not stated) |  | Not Active |
| CC(C)=CCC/C(C)=C/COc1ccc2ccc(=O)oc2c1 [AURAPTENE] |  | Not Active |
| CCCCCCCC1O[C@H](CC/C(C)=C/COc2c3ccoc3cc3oc(=O)ccc23)C(C)(C)O1 (some centres not stated) | 130 |  |

The next lines start with the values.

| IC50 (read-out: IC50) [nM] | IC50 | SMILES |
| --- | --- | --- |
| 2420 |  | CC(C)=CCC/C(C)=C/COc1c2ccoc2cc2oc(=O)ccc12 [BERGAMOTTIN] |
|  | Not Active | C/C(=C\COc1ccc2ccc(=O)oc2c1)CC[C@@H](O)C(C)(C)O [R-(+)-MARMIN] |
| 1580 |  | C/C(=C\COc1c2ccoc2cc2oc(=O)ccc12)CC[C@@H](O)C(C)(C)O |
